Patent publication US20110152166A1, “METHOD OF MODULATION OF PROTEIN PHOSPHORYLATION-DEPENDENT CONFORMATIONAL TRANSITIONS WITH LOW MOLECULAR WEIGHT COMPOUNDS” (priority 2006, published 2011)
Residue numbers refer to the chain shown, from its start. Where two headings read alike, the source gives them in different places. Square brackets hold non-standard residues; d marks the D form. Ends that are not written are not given here. pS = N[C@@H](COP(=O)(O)O)C(=O)O

Columns and labels:
Test in all cases: PDK1 activity assay with T308tide
Format in all cases: biochemical
GST-PDK1 [Thr148Val] = target: T1, GST-PDK1 [Thr148Val] (Homo sapiens, UniProt O15530, T148V); settings: for activation of PDK1 mutant (in words): PDK1[Thr148Val], 20 μM
T1 construct: different protein constructs, comprising the full length protein or the catalytic domain alone; made in house; host or cells: HEK293 cells (pEBG-2T-PDK1 mutant)
T1 sequence (O15530 1-556 T148V): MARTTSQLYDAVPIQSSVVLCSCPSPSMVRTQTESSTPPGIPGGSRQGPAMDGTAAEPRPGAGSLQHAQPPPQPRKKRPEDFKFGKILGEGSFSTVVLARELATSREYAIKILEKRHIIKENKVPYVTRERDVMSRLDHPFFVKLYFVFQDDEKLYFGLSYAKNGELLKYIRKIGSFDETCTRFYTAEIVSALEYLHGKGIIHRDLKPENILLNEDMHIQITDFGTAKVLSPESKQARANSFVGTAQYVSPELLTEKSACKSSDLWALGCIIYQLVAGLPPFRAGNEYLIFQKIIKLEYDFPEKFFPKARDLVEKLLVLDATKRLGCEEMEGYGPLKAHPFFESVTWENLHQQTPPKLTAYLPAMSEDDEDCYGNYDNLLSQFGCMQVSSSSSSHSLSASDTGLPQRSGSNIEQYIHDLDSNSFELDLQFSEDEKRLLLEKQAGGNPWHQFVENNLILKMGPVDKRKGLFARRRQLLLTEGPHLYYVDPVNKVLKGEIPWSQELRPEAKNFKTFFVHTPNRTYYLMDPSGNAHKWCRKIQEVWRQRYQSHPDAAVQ
Protocol: (§1) Protein kinase activity tests were performed essentially as previously described (Balendran et al., 2000; Biondi et al., 2000; Biondi et al., 2001). Substrates used were either MBP (for PKCζ or polypeptides (Crosstide for PKB, S6K, SGK and PRK2; T308tide for PDK1, and Kemptide for PKA). PKA (Sigma) was measured in the presence of 100 μM cAMP. Alternatively, assays were performed in a 96 well format, aliquots spotted on p81 phosphocellulose papers (Whatmann), washed in 0.01% phosphoric acid, dried, and then exposed and analysed using Phospholmager technology (Storm, Molecular Dynamics). Activity measurements were performed in duplicates with less than 10% difference between duplicate pairs. Experiments were repeated at least twice, although most of the experiments were repeated multiple times, with similar results.
(§2) PDK1 activity assay was performed in a 20 μl mix containing 50 mM Tris-HCl pH 7.5, 0.05 mg/ml BSA, 0.1% β-mercaptoethanol, 10 mM MgCl2, 100 μM [γ^32P]ATP (5-50 cpm/pmol), 0.003% Brij, 150 ng PDK1, and T308tide (from 0.05 to 1 mM). PDK1 specific activity was approximately 5 U/mg (when measured at 1 mM T308tide). The effect of small compounds on PDK1 was repeated with proteins from different purification batches and with different protein constructs, comprising the full length protein or the catalytic domain alone, with similar results. […] This variability may be due to the PIFtide/compound-stimulated autophosphorylation of the activation loop in certain preparations having less than a 1:1 molar phosphorylation stoichiometry at this site.
(§3) PDK1 activity was measured at room temperature using a polypeptide substrate derived from the activation loop phosphorylation site of PKB, T308tide (0.1 mM). […] GST-PDK1 wt was purified in numerous occasions and the maximal activation level of different batches varied between 3 and 8 fold activation with PIFtide or compound 1. Variations in the basal activity and fold activation were also observed in mutants. Therefore, comparisons in the maximal level of activation between mutants should be performed with care. The data shown are from an experiment where PIFtide concentrations were tested between 50 nM and 20 µM and compound 1 concentrations were between 5 μM and 200 μM, in triplicate. AC50 and max. activity were estimated by fitting the data to a hyperbola using Kaleidagraph software. One Unit of PDK1 activity was defined as the amount required to catalyse the phosphorylation of 1 nmol of the T308tide in 1 min.

GST-PDK1 [Val127Leu] = target: T2, GST-PDK1 [Val127Leu] (Homo sapiens, UniProt O15530, V127L); settings: for activation of PDK1 mutant (in words): PDK1[Val127Leu]
T2 construct: different protein constructs, comprising the full length protein or the catalytic domain alone; made in house; host or cells: HEK293 cells (pEBG-2T-PDK1 mutant)
T2 sequence (O15530 1-556 V127L): T1 sequence (O15530 1-556 T148V) with V127L, V148T
Protocol: as §1, §2, §3

GST-PDK1 wt = target: T3, GST-PDK1 wt (Homo sapiens, UniProt O15530); settings: for PDK1 (%) activity: 1% DMSO = 100%; for activation of PDK1 (in words): PDK1 wild type
T3 construct: different protein constructs, comprising the full length protein or the catalytic domain alone; made in house; host or cells: HEK293 cells (pEBG-2T-PDK1)
T3 sequence (O15530 1-556): T1 sequence (O15530 1-556 T148V) with V148T
Protocol: as §1, §2, §3

[1] = GST-PDK1 wt, T308tide 0.1 mM, read-out: AC50

Max. activity (GST-PDK1 [Thr148Val]; GST-PDK1 [Thr148Val])	AC50 (GST-PDK1 [Thr148Val]; GST-PDK1 [Thr148Val], read-out: AC50)	activation of PDK1 mutant (in words) (GST-PDK1 [Thr148Val])	AC50 (GST-PDK1 [Val127Leu]; GST-PDK1 [Val127Leu])	PDK1 (%) activity (GST-PDK1 wt; 20 μM compound)	PDK1 (%) activity (GST-PDK1 wt; 200 μM compound)	AC50 (GST-PDK1 wt; FIG. 2B, read-out: AC50 of PDK1 activation)	Max. activity (GST-PDK1 wt; GST-PDK1 wt, T308tide 0.1 mM)	AC50 (GST-PDK1 wt; [1])	activation of PDK1 (in words) (GST-PDK1 wt)	activation of PDK1 mutant (in words) (GST-PDK1 [Val127Leu])	AC50 (GST-PDK1 [Thr148Val]; GST-PDK1 [Thr148Val])	Max. activity (GST-PDK1 [Val127Leu]; GST-PDK1 [Val127Leu])	AC50 (GST-PDK1 [Val127Leu]; GST-PDK1 [Val127Leu], read-out: AC50)	Compound
2.44 ± 0.26 U/mg	102 ± 19 µM	still activated	No Effect	234%	370%	25 µM	1.1 ± 0.07 U/mg	34 ± 9 µM	activated PDK1	–	–	–	–	O=C(O)CSC(CC(=O)c1ccc(Cl)cc1)c1ccccc1 (stereo not shown) [Compound 1]
–	–	–	–	109%	124%	–	–	–	inactive	–	–	–	–	COC(=O)CSC(CC(=O)c1ccc(Cl)cc1)c1ccccc1 (stereo not shown) [Compound 2]
–	–	completely abolished	–	–	–	–	–	–	activated	fully activated	–	–	–	P-HM-RSK: phosphorylated HM polypeptide of RSK: KGAGGGGFRGFS(P)FVA (KGAGGGGFRGF[pS]FVA)
–	–	–	–	–	–	–	0.9 ± 0.05 U/mg	0.11 ± 0.03 µM	–	fully activated	INH	0.99 ± 0.08 U/mg	0.12 ± 0.03 µM	REPRILSEEEQEMFRDFDYIADWC [PIFtide, reference compound]
